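Exposure lasted 48 hours, with cells grown in 96-well plates and compounds tested at five concentrations. GI50 = concentration required for 50% inhibition of growth. TGI is the concentration that stops growth completely.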
Columns and labels:
Assay in all cases: NCI-60 cell line screen, 48 h
SK-MEL-5 melanoma = test system: SK-MEL-5 melanoma
LOX IMVI melanoma = test system: LOX IMVI melanoma
UACC-257 melanoma = test system: UACC-257 melanoma
ACHN renal = test system: ACHN renal
U251 CNS = test system: U251 CNS
NCI-H460 lung = test system: NCI-H460 lung
NCI/ADR-RES ovarian = test system: NCI/ADR-RES ovarian
IGROV1 ovarian = test system: IGROV1 ovarian
UO-31 renal = test system: UO-31 renal
HCT-15 colon = test system: HCT-15 colon

## CCN(CCO)CCNc1ccc(C)c2sc3cc(Cl)ccc3c(=O)c12
SK-MEL-5 melanoma
  GI50: 1.54 µM
  TGI: 2.88 µM
LOX IMVI melanoma
  GI50: 1.59 µM
  TGI: 3.06 µM
UACC-257 melanoma
  GI50: 1.97 µM
  TGI: 3.55 µM
ACHN renal
  GI50: 1.61 µM
  TGI: 3.19 µM
U251 CNS
  GI50: 1.4 µM
  TGI: 2.79 µM
NCI-H460 lung
  GI50: 1.41 µM
  TGI: 3.03 µM
NCI/ADR-RES ovarian
  GI50: 1.49 µM
  TGI: 3.11 µM
IGROV1 ovarian
  GI50: 1.64 µM
  TGI: 3.39 µM
UO-31 renal
  GI50: 1.1 µM
  TGI: 2.4 µM
HCT-15 colon
  GI50: 0.538 µM
  TGI: 1.85 µM

## COc1ccc2c(c1)C=CC(C#N)N2C(=O)c1ccccc1 (stereo not drawn)
SK-MEL-5 melanoma
  GI50: < 0.01 µM
  TGI: 4.68 µM
LOX IMVI melanoma
  GI50: < 0.01 µM
  TGI: > 100 µM
UACC-257 melanoma
  GI50: 45.2 µM
  TGI: > 100 µM
ACHN renal
  GI50: 0.0411 µM
  TGI: > 100 µM
U251 CNS
  GI50: < 0.01 µM
  TGI: > 100 µM
NCI-H460 lung
  GI50: < 0.01 µM
  TGI: 36.7 µM
NCI/ADR-RES ovarian
  GI50: < 0.0464 µM
IGROV1 ovarian
  TGI: > 100 µM
UO-31 renal
  GI50: < 0.01 µM
  TGI: > 100 µM
HCT-15 colon
  GI50: < 0.01 µM
  TGI: > 100 µM

## COc1ccc2c(c1)[C@@]13CCN4CC5=CCO[C@H]6CC(=O)N2[C@H]1[C@H]6[C@H]5C[C@H]43
SK-MEL-5 melanoma
  TGI: > 100 µM
LOX IMVI melanoma
  TGI: > 100 µM
UACC-257 melanoma
  TGI: > 100 µM
ACHN renal
  TGI: > 100 µM
U251 CNS
  TGI: > 100 µM
NCI-H460 lung
  TGI: > 100 µM
NCI/ADR-RES ovarian
  TGI: > 100 µM
IGROV1 ovarian
  TGI: > 100 µM
UO-31 renal
  TGI: > 100 µM
HCT-15 colon
  TGI: > 100 µM

## COc1ccc(C2C(C#N)=C(N)OC3=C2CCCc2ccc(F)cc23)cc1OC (stereo not drawn)
SK-MEL-5 melanoma
  GI50: 14.7 µM
  TGI: 27.9 µM
LOX IMVI melanoma
  GI50: 21.9 µM
  TGI: 44.8 µM
UACC-257 melanoma
  GI50: 29.6 µM
  TGI: > 67.8 µM
ACHN renal
  GI50: 19.9 µM
  TGI: 41.7 µM
U251 CNS
  GI50: 17 µM
  TGI: 35.9 µM
NCI-H460 lung
  GI50: 20.9 µM
  TGI: 54.4 µM
NCI/ADR-RES ovarian
  GI50: 16.6 µM
  TGI: 43.9 µM
IGROV1 ovarian
  GI50: 18.3 µM
  TGI: 46.3 µM
UO-31 renal
  GI50: 16.5 µM
  TGI: 31.8 µM
HCT-15 colon
  GI50: 17.8 µM
  TGI: 38 µM

## COc1cc(-c2cn(C)c(=O)c(C)c2C)cc(OC)c1CN1CC[C@H](N2CCN(c3ccc(N[C@H]4CCC(=O)NC4=O)cc3F)CC2)C(F)(F)C1
SK-MEL-5 melanoma
  GI50: 4.64 µM
  TGI: 18.8 µM
LOX IMVI melanoma
  GI50: 11.5 µM
  TGI: 24.9 µM
UACC-257 melanoma
  GI50: 10.5 µM
  TGI: 24.2 µM
ACHN renal
  GI50: 15.2 µM
  TGI: 28.8 µM
U251 CNS
  GI50: 13.6 µM
  TGI: 29.6 µM
NCI-H460 lung
  GI50: 15.5 µM
  TGI: 32.4 µM
NCI/ADR-RES ovarian
  GI50: 12.9 µM
  TGI: 30.5 µM
IGROV1 ovarian
  GI50: 13.8 µM
  TGI: 34.3 µM
UO-31 renal
  GI50: 4.56 µM
  TGI: 17.6 µM
HCT-15 colon
  GI50: 10.7 µM
  TGI: 24.1 µM

## CC(C)(C)c1nc2c(o1)C(=Nc1ccc(F)cc1)c1ccccc1C2=O
SK-MEL-5 melanoma
  TGI: 3.45 µM
LOX IMVI melanoma
  TGI: 13 µM
UACC-257 melanoma
  TGI: 8.41 µM
ACHN renal
  TGI: 32.1 µM
U251 CNS
  TGI: 19.7 µM
NCI-H460 lung
  TGI: 21.5 µM
NCI/ADR-RES ovarian
  TGI: > 56.7 µM
IGROV1 ovarian
  TGI: > 66.7 µM
UO-31 renal
  TGI: 28.1 µM
HCT-15 colon
  TGI: 33.8 µM

## NC(N)=N/N=C/c1c(-c2ccccn2)nc2sc(Cl)cn12
SK-MEL-5 melanoma
  GI50: 8.47 µM
  TGI: 15.4 µM
LOX IMVI melanoma
  GI50: 7.26 µM
  TGI: 14 µM
UACC-257 melanoma
  GI50: 7.45 µM
  TGI: 14.8 µM
ACHN renal
  GI50: 7.49 µM
  TGI: 15.3 µM
U251 CNS
  GI50: 8.28 µM
  TGI: 15.1 µM
NCI-H460 lung
  GI50: 10.2 µM
  TGI: 50 µM
NCI/ADR-RES ovarian
  GI50: 13.6 µM
  TGI: 35.6 µM
IGROV1 ovarian
  GI50: 6.21 µM
  TGI: 13.7 µM
UO-31 renal
  GI50: 7.85 µM
  TGI: 14.8 µM
HCT-15 colon
  GI50: 8.15 µM
  TGI: 14.9 µM

## Nc1ccc(SC23CC4CC(CC(C4)C2)C3)cc1
SK-MEL-5 melanoma
  TGI: > 100 µM
LOX IMVI melanoma
  TGI: > 100 µM
UACC-257 melanoma
  TGI: > 100 µM
ACHN renal
  TGI: > 100 µM
U251 CNS
  TGI: > 100 µM
NCI-H460 lung
  TGI: > 100 µM
NCI/ADR-RES ovarian
  TGI: > 100 µM
IGROV1 ovarian
  TGI: > 100 µM
UO-31 renal
  TGI: > 100 µM
HCT-15 colon
  TGI: > 100 µM

## CC(=O)n1c(-c2ccc(Cl)cc2)nc2c(c1=O)C(c1ccc(Cl)cc1)c1sc3c(Cl)cccc3c1O2 (stereo not drawn)
SK-MEL-5 melanoma
  GI50: 0.354 µM
  TGI: 1.32 µM
LOX IMVI melanoma
  GI50: 0.59 µM
  TGI: 1.91 µM
UACC-257 melanoma
  GI50: 0.68 µM
  TGI: 3.9 µM
ACHN renal
  GI50: 1 µM
  TGI: 3.91 µM
U251 CNS
  GI50: 0.446 µM
  TGI: 1.67 µM
NCI-H460 lung
  GI50: 0.365 µM
  TGI: 1.39 µM
NCI/ADR-RES ovarian
  GI50: 0.292 µM
  TGI: 1.01 µM
IGROV1 ovarian
  GI50: 0.847 µM
  TGI: 3.11 µM
UO-31 renal
  GI50: 0.551 µM
  TGI: 2.2 µM
HCT-15 colon
  GI50: 0.418 µM
  TGI: 1.74 µM

## C=CCOc1c(Br)cc(Br)cc1Br
SK-MEL-5 melanoma
  GI50: 43.4 µM
  TGI: > 100 µM
LOX IMVI melanoma
  GI50: 15.9 µM
  TGI: > 100 µM
UACC-257 melanoma
  GI50: 57.6 µM
  TGI: > 100 µM
ACHN renal
  GI50: 16.5 µM
  TGI: > 100 µM
U251 CNS
  GI50: 8.28 µM
  TGI: > 100 µM
NCI-H460 lung
  GI50: 8.21 µM
  TGI: > 100 µM
NCI/ADR-RES ovarian
  GI50: 17.3 µM
  TGI: > 100 µM
IGROV1 ovarian
  GI50: 5.26 µM
  TGI: 67.1 µM
UO-31 renal
  GI50: 2.82 µM
  TGI: 57.8 µM
HCT-15 colon
  GI50: 16.7 µM
  TGI: > 100 µM

## CNC(=O)c1cc(Oc2ccc(NC(=O)Nc3ccc(Cl)c(OC(F)(F)F)c3)c(F)c2)ccn1
SK-MEL-5 melanoma
  GI50: 1.63 µM
  TGI: 5.46 µM
LOX IMVI melanoma
  GI50: 1.76 µM
  TGI: 25.2 µM
UACC-257 melanoma
  GI50: 1.19 µM
  TGI: 6.54 µM
ACHN renal
  GI50: 1.33 µM
  TGI: > 33.2 µM
U251 CNS
  GI50: 2.32 µM
  TGI: 13.7 µM
NCI-H460 lung
  GI50: 2.22 µM
  TGI: 17.6 µM
NCI/ADR-RES ovarian
  GI50: 1.37 µM
  TGI: 5.22 µM
IGROV1 ovarian
  GI50: 2.3 µM
  TGI: 16.6 µM
UO-31 renal
  GI50: 1.07 µM
  TGI: 13.3 µM
HCT-15 colon
  GI50: 1.58 µM
  TGI: 18 µM

## Cc1noc(C)c1-c1ccc2[nH]c(=O)n3c2c1OC[C@@H]3c1ccccn1
SK-MEL-5 melanoma
  GI50: 3.81 µM
  TGI: > 100 µM
LOX IMVI melanoma
  GI50: 0.581 µM
  TGI: > 32.1 µM
UACC-257 melanoma
  GI50: 3.92 µM
  TGI: > 100 µM
ACHN renal
  GI50: 1.5 µM
  TGI: > 100 µM
U251 CNS
  GI50: 30.9 µM
  TGI: > 100 µM
NCI-H460 lung
  GI50: > 100 µM
  TGI: > 100 µM
NCI/ADR-RES ovarian
  GI50: 2.33 µM
  TGI: > 100 µM
IGROV1 ovarian
  GI50: 0.965 µM
  TGI: > 100 µM
UO-31 renal
  GI50: 0.18 µM
  TGI: > 100 µM
HCT-15 colon
  GI50: 0.653 µM
  TGI: > 100 µM

## C[C@H]1CCC/C=C/[C@@H]2C[C@H](N)C[C@H]2[C@H](O)/C=C/C(=O)O1
SK-MEL-5 melanoma
  GI50: 77.1 µM
  TGI: > 100 µM
LOX IMVI melanoma
  GI50: > 100 µM
  TGI: > 100 µM
UACC-257 melanoma
  GI50: > 100 µM
  TGI: > 100 µM
ACHN renal
  GI50: > 100 µM
  TGI: > 100 µM
U251 CNS
  GI50: > 100 µM
  TGI: > 100 µM
NCI-H460 lung
  GI50: > 100 µM
  TGI: > 100 µM
NCI/ADR-RES ovarian
  GI50: > 100 µM
  TGI: > 100 µM
IGROV1 ovarian
  GI50: > 100 µM
  TGI: > 100 µM
UO-31 renal
  GI50: > 100 µM
  TGI: > 100 µM
HCT-15 colon
  GI50: > 100 µM
  TGI: > 100 µM

## COc1ccc(NC2=C(Br)C(=O)C(C)=C(C)C2=O)cc1
SK-MEL-5 melanoma
  GI50: 13.1 µM
  TGI: 26 µM
LOX IMVI melanoma
  GI50: 1.67 µM
  TGI: 3.17 µM
UACC-257 melanoma
  GI50: 1.75 µM
  TGI: 3.37 µM
ACHN renal
  GI50: 2.87 µM
  TGI: 8.76 µM
U251 CNS
  GI50: 1.93 µM
  TGI: 3.98 µM
NCI-H460 lung
  GI50: 18.8 µM
  TGI: 42.6 µM
NCI/ADR-RES ovarian
  GI50: 2.04 µM
  TGI: 4.65 µM
IGROV1 ovarian
  GI50: 1.8 µM
  TGI: 3.39 µM
UO-31 renal
  GI50: 1.73 µM
  TGI: 3.16 µM
HCT-15 colon
  GI50: 11.4 µM
  TGI: 27.7 µM

From PubChem BioAssay (NCI)
